From patent US4021566A, “2,5-Dimethyl-1-pyrrole-lower-alkanecarboxamides” (Sterling Drug Inc., priority 1975, dated 1977)
Values joined by “and” are separate entries in the source; they are usually repeats but may differ in a detail not shown here. Identical values can stand only once.

Legend:
[1] = test system: reserpine-induced stomach ulceration; test: Anti-ulcer activity, reserpine-induced anti-ulcer test method of Selmici et al.; type: in vivo, male, albino, Sprague-Dawley rats; conditions: rat, oral, reserpine 5.0 mg/kg i.m., vs control
Procedure: The anti-ulcer activity of the compounds was determined using the reserpine-induced anti-ulcer test method, described by Selmici et al., which is described briefly as follows: male, albino, Sprague-Dawley rats, weighing approximately 300 g., were divided into medicated and control groups of at least five rats each, and one positive control group of five rats medicated with a known drug at the active dose was run with each experiment. The rats were medicated forty-eight, twenty-four, and one hour before receiving an injection of reserpine. All test drugs were administered orally in terms of base, and the control rats received only the vehicle of medication. The rats were housed individually in wire cages, and food was withdrawn twenty-four hours prior to injection of reserpine, while water was allowed ad libitum. One hour following the third medication, 5.0 mg. of reserpine per kilogram of body weight in a concentration of 5 mg./ml. was injected intramuscularly in each rat. Eighteen hours after injection the rats were sacrificed, their stomachs removed, opened along the greater curvature, rinsed in warm saline, and pinned to a cork board for gross observation. The stomachs were examined for the number and size of ulcerations located in the glandular portion of the stomach with the aid of a one millimeter grid ocular with a 10x dissecting microscope. The degree of ulceration was arbitrarily graded according to the number and size of the ulcers as follows:
The points were added together and divided by the number of rats in each group to give an ulcer score, and the difference in the mean scores of the medicated and control group was expressed as percent inhibition of ulceration. Alternatively, the results can be expressed as a ratio of the total number of rats with any degree of ulceration (as the numerator) to the total number of rats in the test group (as the denominator).

gastric secretion = test: Anti-secretory activity, pylorus ligation method of Shay et al.; type: in vivo, male albino Wistar rats; conditions: rat; for Anti-Secretory % Inhibition of Free Acid / Anti-Secretory pH: oral; for Anti-Secretory % Inhibition of Free Acid: vs control; for Anti-Secretory pH: pH of gastric fluid
Procedure: In standard biological test procedures, described generally by Shay et al., Gastroenterology 5, 43 (1945) and 26, 906 (1954) and by Selmici et al., Acta Physiol. Acad. Sci. Hung. […] Anti-secretory activity was determined in male albino Wistar rats weighing approximately 180 g. using the method described by Shay et al. which is described as follows: the rats were divided into medicated groups of at least five rats each and control groups of ten rats. The rats were medicated orally once daily for two days prior to stomach ligation and once again immediately following ligation. All drugs were administered as the free base, and control rats received only the vehicle of medication. The rats were housed individually in wire cages, food was withdrawn forty-eight hours prior to surgery, and water was withdrawn at the time of surgery. Laparotomy was performed under light ether anesthesia, the pyloric-duodenal junction was ligated, and the wound was closed with metal clips and sprayed with a protective surgical dressing. Five hours following surgery, the rats were sacrificed, the stomach was removed, and the gastric juice collected. The gastric fluid was centrifuged, and total volume, color, and volume of solids were recorded. The pH of the gastric fluid was then determined on a Beckamn pH meter, and the "free" and "total" hydrochloric acid content of each gastric sample was determined by titrating an aliquot of the gastric fluid (diluted to approximately 10 ml. with distilled water) by titrating with 0.1N sodium hydroxide against Toepfers reagent and phenolphthalein, respectively. By determining the milliequivalents of hydrochloric acid per milliliter of gastric juice and knowing the total volume of gastric juice secreted by each rat, the total acid output can be calculated. Since pH is a function of "free" acid, the activity of the test compounds can be evaluated by comparison of the mean "free" acid of medicated rats with the mean "free" acid of the controls, and the activity can thus be expressed in terms of percent inhibition of free acid.

Row | SMILES | Anti-Ulcer % Inhibition ([1]; dose 25 (mg/kg)) [%] | Anti-Ulcer % Inhibition ([1]; dose 50 (mg/kg)) [%] | Anti-Ulcer % Inhibition ([1]; dose 100 (mg/kg)) [%] | Anti-Secretory % Inhibition of Free Acid (gastric secretion; dose 12.5 (mg/kg)) [%] | Anti-Secretory pH (gastric secretion; dose 12.5 (unit not in table; mg/kg)) | Anti-Secretory pH (gastric secretion; dose 25 (mg/kg)) | Anti-Secretory % Inhibition of Free Acid (gastric secretion; dose 25 (mg/kg)) [%] | Anti-Secretory pH (gastric secretion; dose 50 (mg/kg)) | Anti-Secretory % Inhibition of Free Acid (gastric secretion; dose 50 (mg/kg)) [%] | Anti-Secretory pH (gastric secretion; dose 100 (mg/kg)) | Anti-Secretory % Inhibition of Free Acid (gastric secretion; dose 100 (mg/kg)) | Anti-Secretory pH (gastric secretion; dose 200 (mg/kg)) | Anti-Secretory % Inhibition of Free Acid (gastric secretion; dose 200 (mg/kg)) [%] | anti-secretory activity (in words) (gastric secretion; in vivo)
1 | Cc1c(C)c(C)n(CC(N)=O)c1C [Example 1, 2,3,4,5-tetramethyl-1-pyrroleacetamide] | 61 | 87 | 94 | 44 | 1.3 | 1.5 | 49 | 2.9 | 83 | 3.6 | 91% |  |  | 
2 | Cc1ccc(C)n1CC(N)=O [Example 2, 2,5-dimethyl-1-pyrroleacetamide] |  | 40 |  |  |  |  |  | 1.7 | 21 | 2.7 and 2.6 | 78% and 63% | 4.6 | 100 | 
3 | Cc1c(C)c(C)n(CCC(N)=O)c1C [Example 3, β-(2,3,4,5-tetramethyl-1-pyrrole)propionamide] | 36 | 66 |  |  |  |  |  |  |  | 2.4 | 60% |  |  | 
4 | NC(=O)Cn1cccc1 [Reference, pyrrole-1-acetamide, reference compound] |  |  |  |  |  |  |  |  |  | 1.7 | 46% |  |  | has anti-secretory activity
